Reference: patent US8192962B2, “Processes for detecting toxic substances” (Daikin Industries, Ltd., priority 2001, dated 2012)

System: Unknown protein yeast genes
Experiment: DNA chip mRNA expression in yeast, unknown protein yeast genes (Table 1)
Type: cell-based, Saccharomyces cerevisiae S288C
Procedure, shortened: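 S. cerevisiae S288C grown at 25° C. in YPD to log phase, then exposed 2 h to a toxicant at a growth-inhibiting, non-lethal concentration; untreated cells as control. Poly(A) mRNA reverse-transcribed with Cy3-dUTP or Cy5-dUTP, hybridized >12 h at 65° C. to whole-genome yeast DNA chip; value = fluorescence ratio treated/untreated.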

Na2As [(1)]
The level of expressed mRNA in the presence of chemical substance/The level of expressed mRNA in the absence of chemical substance (yeast gene YAL053W, incubated two hours with chemical substance): 0.9
The level of expressed mRNA in the presence of chemical substance/The level of expressed mRNA in the absence of chemical substance (yeast gene YBL048W): 2.0
The level of expressed mRNA in the presence of chemical substance/The level of expressed mRNA in the absence of chemical substance (yeast gene YBL107C): 1.4
The level of expressed mRNA in the presence of chemical substance/The level of expressed mRNA in the absence of chemical substance (yeast gene YDL072C, incubated two hours with chemical substance): 1.3
The level of expressed mRNA in the presence of chemical substance/The level of expressed mRNA in the absence of chemical substance (yeast gene YDL204W, incubated two hours with chemical substance): 1.4
The level of expressed mRNA in the presence of chemical substance/The level of expressed mRNA in the absence of chemical substance (yeast gene YDL222C, incubated two hours with chemical substance): 0.9
The level of expressed mRNA in the presence of chemical substance/The level of expressed mRNA in the absence of chemical substance (yeast gene YDR330W, incubated two hours with chemical substance): 0.8
The level of expressed mRNA in the presence of chemical substance/The level of expressed mRNA in the absence of chemical substance (yeast gene YDR411C, incubated two hours with chemical substance): 0.9
The level of expressed mRNA in the presence of chemical substance/The level of expressed mRNA in the absence of chemical substance (yeast gene YDR511W, incubated two hours with chemical substance): 1.3
The level of expressed mRNA in the presence of chemical substance/The level of expressed mRNA in the absence of chemical substance (yeast gene YDR545W, incubated two hours with chemical substance): 0.6
The level of expressed mRNA in the presence of chemical substance/The level of expressed mRNA in the absence of chemical substance (yeast gene YEL001C, incubated two hours with chemical substance): 1.0
The level of expressed mRNA in the presence of chemical substance/The level of expressed mRNA in the absence of chemical substance (yeast gene YER004W, incubated two hours with chemical substance): 1.0
The level of expressed mRNA in the presence of chemical substance/The level of expressed mRNA in the absence of chemical substance (yeast gene YER035W, incubated two hours with chemical substance): 1.4
The level of expressed mRNA in the presence of chemical substance/The level of expressed mRNA in the absence of chemical substance (yeast gene YER079W, incubated two hours with chemical substance): 1.1
The level of expressed mRNA in the presence of chemical substance/The level of expressed mRNA in the absence of chemical substance (yeast gene YER106W, incubated two hours with chemical substance): 1.3
The level of expressed mRNA in the presence of chemical substance/The level of expressed mRNA in the absence of chemical substance (yeast gene YER158C, incubated two hours with chemical substance): 1.2
The level of expressed mRNA in the presence of chemical substance/The level of expressed mRNA in the absence of chemical substance (yeast gene YER163C, incubated two hours with chemical substance): 1.1
The level of expressed mRNA in the presence of chemical substance/The level of expressed mRNA in the absence of chemical substance (yeast gene YER175C, incubated two hours with chemical substance): 0.9
The level of expressed mRNA in the presence of chemical substance/The level of expressed mRNA in the absence of chemical substance (yeast gene YFL006W, incubated two hours with chemical substance): 0.8
The level of expressed mRNA in the presence of chemical substance/The level of expressed mRNA in the absence of chemical substance (yeast gene YFL010C, incubated two hours with chemical substance): 1.0
The level of expressed mRNA in the presence of chemical substance/The level of expressed mRNA in the absence of chemical substance (yeast gene YFL024C): 1.0
The level of expressed mRNA in the presence of chemical substance/The level of expressed mRNA in the absence of chemical substance (yeast gene YFL032W, incubated two hours with chemical substance): 0.4
The level of expressed mRNA in the presence of chemical substance/The level of expressed mRNA in the absence of chemical substance (yeast gene YGL037C, incubated two hours with chemical substance): 1.5
The level of expressed mRNA in the presence of chemical substance/The level of expressed mRNA in the absence of chemical substance (yeast gene YGL047W, incubated two hours with chemical substance): 1.0
The level of expressed mRNA in the presence of chemical substance/The level of expressed mRNA in the absence of chemical substance (yeast gene YGL053W, incubated two hours with chemical substance): 1.5
The level of expressed mRNA in the presence of chemical substance/The level of expressed mRNA in the absence of chemical substance (yeast gene YGL121C): 2.6
The level of expressed mRNA in the presence of chemical substance/The level of expressed mRNA in the absence of chemical substance (yeast gene YGL199C, incubated two hours with chemical substance): 1.1
The level of expressed mRNA in the presence of chemical substance/The level of expressed mRNA in the absence of chemical substance (yeast gene YGR101W, incubated two hours with chemical substance): 1.0
The level of expressed mRNA in the presence of chemical substance/The level of expressed mRNA in the absence of chemical substance (yeast gene YGR110W): 1.6
The level of expressed mRNA in the presence of chemical substance/The level of expressed mRNA in the absence of chemical substance (yeast gene YGR130C, incubated two hours with chemical substance): 0.9
The level of expressed mRNA in the presence of chemical substance/The level of expressed mRNA in the absence of chemical substance (yeast gene YGR154C, incubated two hours with chemical substance): 1.8
The level of expressed mRNA in the presence of chemical substance/The level of expressed mRNA in the absence of chemical substance (yeast gene YGR221C, incubated two hours with chemical substance): 0.9
The level of expressed mRNA in the presence of chemical substance/The level of expressed mRNA in the absence of chemical substance (yeast gene YHR138C, incubated two hours with chemical substance): 2.8
The level of expressed mRNA in the presence of chemical substance/The level of expressed mRNA in the absence of chemical substance (yeast gene YHR199C, incubated two hours with chemical substance): 1.9
The level of expressed mRNA in the presence of chemical substance/The level of expressed mRNA in the absence of chemical substance (yeast gene YIL023C, incubated two hours with chemical substance): 1.1
The level of expressed mRNA in the presence of chemical substance/The level of expressed mRNA in the absence of chemical substance (yeast gene YIL041W, incubated two hours with chemical substance): 1.0
The level of expressed mRNA in the presence of chemical substance/The level of expressed mRNA in the absence of chemical substance (yeast gene YIL087C, incubated two hours with chemical substance): 1.3
The level of expressed mRNA in the presence of chemical substance/The level of expressed mRNA in the absence of chemical substance (yeast gene YJL057C, incubated two hours with chemical substance): 1.5
The level of expressed mRNA in the presence of chemical substance/The level of expressed mRNA in the absence of chemical substance (yeast gene YJL066C, incubated two hours with chemical substance): 0.9
The level of expressed mRNA in the presence of chemical substance/The level of expressed mRNA in the absence of chemical substance (yeast gene YJL082W, incubated two hours with chemical substance): 1.4
The level of expressed mRNA in the presence of chemical substance/The level of expressed mRNA in the absence of chemical substance (yeast gene YJL151C, incubated two hours with chemical substance): 1.0
The level of expressed mRNA in the presence of chemical substance/The level of expressed mRNA in the absence of chemical substance (yeast gene YJL152W, incubated two hours with chemical substance): 0.9
The level of expressed mRNA in the presence of chemical substance/The level of expressed mRNA in the absence of chemical substance (yeast gene YJL161W, incubated two hours with chemical substance): 1.7
The level of expressed mRNA in the presence of chemical substance/The level of expressed mRNA in the absence of chemical substance (yeast gene YJL171C, incubated two hours with chemical substance): 2.3
The level of expressed mRNA in the presence of chemical substance/The level of expressed mRNA in the absence of chemical substance (yeast gene YJR008W, incubated two hours with chemical substance): 1.6
The level of expressed mRNA in the presence of chemical substance/The level of expressed mRNA in the absence of chemical substance (yeast gene YJR054W, incubated two hours with chemical substance): 0.8
The level of expressed mRNA in the presence of chemical substance/The level of expressed mRNA in the absence of chemical substance (yeast gene YKL071W): 8.3
The level of expressed mRNA in the presence of chemical substance/The level of expressed mRNA in the absence of chemical substance (yeast gene YKL086W, incubated two hours with chemical substance): 1.0
The level of expressed mRNA in the presence of chemical substance/The level of expressed mRNA in the absence of chemical substance (yeast gene YKL151C, incubated two hours with chemical substance): 1.2
The level of expressed mRNA in the presence of chemical substance/The level of expressed mRNA in the absence of chemical substance (yeast gene YKL153W, incubated two hours with chemical substance): 1.1
